Where “and” joins values, the source holds several entries; their conditions need not be identical. Equal entries are not always repeated.
What was measured:
[1] = Phase 2 study: plasma danicopan pharmacokinetics (LC-MS/MS); type: in vivo, human
Source text: The mean (% CV) Ctrough value was 105 (57) ng/mL during these intensive sampling days. Sampling at through times over the rest of the study duration under less controlled conditions yielded a mean (% CV) Ctrough value of 150 (59) ng/mL.

PNH erythrocytes = experiment: Phase 2 study: PNH clone size and C3 fragment deposition on erythrocytes by flow cytometry (anti-human C3d antibody); type: in vivo
Protocol: FIGS. 4A-4D are graphs depicting the effect on complement biomarkers and PNH clone size. […] Arithmetic mean and standard derivation (SD) were shown for all but the clone size of C3d^+ PNH erythrocytes where geometric mean was used, and the range was shown at each time point. NHS, normal human serum; BL, baseline; LLN, lower limit normal; ULN, upper limit normal.
Pharmacodynamics were determined by measuring serum AP activity with AP hemolysis assay. Serum CP activity, Plasma Bb concentration, serum FD, and C3 concentrations were also monitored. Complement tests were conducted by a central lab using commercial kits, with the exception of AP hemolysis assay which was conducted internally for exploratory purposes. At each AP hemolysis run, a single normal human serum sample was included in addition to the patient serum samples so hemolysis values of individual patient serum samples could be standardized to the hemolysis value of the normal human serum sample. Finally, PNH clone size and C3 fragment deposition on erythrocytes was measured using flow cytometry with FITC conjugated anti-human C3d antibody.

[2] = N=11, Baseline, before danicopan, on eculizumab
[3] = Patient A, Baseline, before danicopan, on eculizumab 900 mg q14d
[4] = Patient B, Baseline, before danicopan, on eculizumab 1200 mg q14d
[5] = Patient C, Baseline, before danicopan, on eculizumab 900 mg q14d
[6] = Patient C, Week 12, danicopan 150 mg TID + eculizumab 900 mg q14d
[7] = Patient C, Week 24, danicopan 150 mg TID + eculizumab 900 mg q14d
[8] = Patient D, Baseline, before danicopan, on eculizumab 900 mg q14d
[9] = Patient D, Week 12, danicopan 150 mg TID + eculizumab 900 mg q14d
[10] = Patient D, Week 24, danicopan 150 mg TID + eculizumab 900 mg q14d
[11] = Patient E, Baseline, before danicopan, on eculizumab 1200 mg q14d
[12] = Patient E, Week 12, danicopan 150 mg TID + eculizumab 1200 mg q14d
[13] = Patient E, Week 24, danicopan 150 mg TID + eculizumab 1200 mg q14d
[14] = Patient F, Baseline, before danicopan, on eculizumab 900 mg q14d
[15] = Patient F, Week 12, danicopan 150 mg TID + eculizumab 900 mg q14d
[16] = Patient F, Week 24, danicopan 150 mg TID + eculizumab 900 mg q14d
[17] = Patient G, Baseline, before danicopan, on eculizumab 1500 mg q14d
[18] = Patient G, Week 12, danicopan 100 mg TID + eculizumab 1500 mg q14d
[19] = Patient G, Week 24, danicopan 100 mg TID + eculizumab 1500 mg q14d
[20] = Patient H, Baseline, before danicopan, on eculizumab 900 mg q14d
[21] = Patient H, Week 12, danicopan 200 mg TID + eculizumab 900 mg q14d
[22] = Patient I, Baseline, before danicopan, on eculizumab 900 mg q14d
[23] = Patient I, Week 12, danicopan 100 mg TID + eculizumab 900 mg q14d
[24] = Patient J, Baseline, before danicopan, on eculizumab 1200 mg q14d

CC(=O)c1nn(CC(=O)N2C[C@H](F)C[C@H]2C(=O)Nc2cccc(Br)n2)c2ccc(-c3cnc(C)nc3)cc12 [Danicopan, danicopan]
Ctrough, mean (% CV) ([1]; intensive sampling days, Week 7): 105 (57) ng/mL
Ctrough, mean (% CV) ([1]; trough sampling over the rest of the study, less controlled conditions): 150 (59) ng/mL
PNH RBC clone size, mean (PNH erythrocytes; N=7, Week 24, danicopan 100-200 mg TID + eculizumab): 84±22.1% and 84%
C3d^+ PNHRBCs, geometric mean (PNH erythrocytes; [2]): 22% and 22.2%
PNH RBC clone size, mean (PNH erythrocytes; [2]): 54±24.9% and 54%
C3d^+ PNHRBCs, geometric mean (PNH erythrocytes; N=11, Week 24, danicopan 100-200 mg TID + eculizumab): 6.7% and 6.68%
C3d^+ PNHRBCs (PNH erythrocytes; [3]): 6.30%
PNH RBC clone size (PNH erythrocytes; [3]): 41%
PNH RBC clone size (PNH erythrocytes; Patient A, Week 12, danicopan 150 mg TID + eculizumab 900 mg q14d): 83%
C3d^+ PNHRBCs (PNH erythrocytes; Patient A, Week 24, danicopan 150 mg TID + eculizumab 900 mg q14d): 2.20%
C3d^+ PNHRBCs (PNH erythrocytes; [4]): 8.20%
PNH RBC clone size (PNH erythrocytes; [4]): 80%
PNH RBC clone size (PNH erythrocytes; Patient B, Week 12, danicopan 100 mg TID + eculizumab 900 mg q14d): 89%
C3d^+ PNHRBCs (PNH erythrocytes; Patient B, Week 24, danicopan 100 mg TID + eculizumab 900 mg q14d): 1.00%
C3d^+ PNHRBCs (PNH erythrocytes; [5]): 17.5%
PNH RBC clone size (PNH erythrocytes; [5]): 22%
C3d^+ PNHRBCs (PNH erythrocytes; [6]): 18.6%
PNH RBC clone size (PNH erythrocytes; [6]): 59%
C3d^+ PNHRBCs (PNH erythrocytes; [7]): 16.7%
PNH RBC clone size (PNH erythrocytes; [7]): 51%
C3d^+ PNHRBCs (PNH erythrocytes; [8]): 15.9%
PNH RBC clone size (PNH erythrocytes; [8]): 52%
C3d^+ PNHRBCs (PNH erythrocytes; [9]): 0.200%
PNH RBC clone size (PNH erythrocytes; [9]): 99%
C3d^+ PNHRBCs (PNH erythrocytes; [10]): 5.20%
PNH RBC clone size (PNH erythrocytes; [10]): 100%
C3d^+ PNHRBCs (PNH erythrocytes; [11]): 21.3%
PNH RBC clone size (PNH erythrocytes; [11]): 21%
C3d^+ PNHRBCs (PNH erythrocytes; [12]): 11.8%
PNH RBC clone size (PNH erythrocytes; [12]): 37%
C3d^+ PNHRBCs (PNH erythrocytes; [13]): 4.90%
PNH RBC clone size (PNH erythrocytes; [13]): 53%
C3d^+ PNHRBCs (PNH erythrocytes; [14]): 71.0%
PNH RBC clone size (PNH erythrocytes; [14]): 95%
C3d^+ PNHRBCs (PNH erythrocytes; [15]): 48.0%
PNH RBC clone size (PNH erythrocytes; [15]): 99%
C3d^+ PNHRBCs (PNH erythrocytes; [16]): 53.4%
PNH RBC clone size (PNH erythrocytes; [16]): 98%
C3d^+ PNHRBCs (PNH erythrocytes; [17]): 80.0%
PNH RBC clone size (PNH erythrocytes; [17]): 62.8%
C3d^+ PNHRBCs (PNH erythrocytes; [18]): 29.4%
PNH RBC clone size (PNH erythrocytes; [18]): 90.4%
C3d^+ PNHRBCs (PNH erythrocytes; [19]): 57.0%
PNH RBC clone size (PNH erythrocytes; [19]): 96.0%
C3d^+ PNHRBCs (PNH erythrocytes; [20]): 38.8%
PNH RBC clone size (PNH erythrocytes; [20]): 19%
C3d^+ PNHRBCs (PNH erythrocytes; [21]): 14.9%
PNH RBC clone size (PNH erythrocytes; [21]): 71%
C3d^+ PNHRBCs (PNH erythrocytes; Patient H, Week 24, danicopan 200 mg TID + eculizumab 900 mg q14d): 22.8%
C3d^+ PNHRBCs (PNH erythrocytes; [22]): 13.6%
PNH RBC clone size (PNH erythrocytes; [22]): 73%
C3d^+ PNHRBCs (PNH erythrocytes; [23]): 0.400%
PNH RBC clone size (PNH erythrocytes; [23]): 95%
C3d^+ PNHRBCs (PNH erythrocytes; Patient I, Week 24, danicopan 200 mg TID + eculizumab 900 mg q14d): 0.100%
C3d^+ PNHRBCs (PNH erythrocytes; [24]): 34.3%
PNH RBC clone size (PNH erythrocytes; [24]): 60%
C3d^+ PNHRBCs (PNH erythrocytes; Patient J, Week 12, danicopan 100 mg TID + eculizumab 1200 mg q14d): 59.5%

From patent publication US20230172930A1, “USE OF COMPLEMENT FACTOR D INHIBITORS ALONE OR IN COMBINATION WITH ANTI-C5 ANTIBODIES FOR TREATMENT OF PAROXYSMAL NOCTURNAL HEMOGLOBINURIA” (Alexion Pharmaceuticals, Inc., priority 2020, published 2023)
